The record followed here is ChEMBL document CHEMBL5537139, “Promises of anionic calix[n]arenes in life science: State of the art in 2023” (Eur J Med Chem, 2024).

A short description of series [1]: Binding affinity to trimethyl-lysine (unknown origin) assessed as dissociation constant. On the set-up: species or system Homo sapiens.
Series [2] can be described thus: Binding affinity to Methyl-lysine (unknown origin) assessed as dissociation constant. The arrangement: species or system Homo sapiens.
A short description of series [3]: Inhibition of influenza A virus A/H3N2 neuraminidase.
Series [4] concerns HT-29. In words: Anticancer activity against human HT-29 cells assessed as reduction in cell viability incubated for 24 hrs by MTT assay. The series is classed as functional, cell-based. As to conditions: HT-29, 24 h.
The test system of series [5] is Caco-2. In words: Anticancer activity against human Caco-2 cells assessed as inhibition of cell viability. The series is classed as functional, cell-based.
In series [6] the target is bovine serum albumin (Bos taurus, UniProt P02769). As to the kind of experiment: Inhibition of bovine serum albumin at 1 uM by SPR analysis relative to control. As to conditions: cattle. On the technique in general: In SPR one partner is held on a chip, and binding of the other changes the refractive index at the surface.
bovine serum albumin, sequence (P02769 whole entry): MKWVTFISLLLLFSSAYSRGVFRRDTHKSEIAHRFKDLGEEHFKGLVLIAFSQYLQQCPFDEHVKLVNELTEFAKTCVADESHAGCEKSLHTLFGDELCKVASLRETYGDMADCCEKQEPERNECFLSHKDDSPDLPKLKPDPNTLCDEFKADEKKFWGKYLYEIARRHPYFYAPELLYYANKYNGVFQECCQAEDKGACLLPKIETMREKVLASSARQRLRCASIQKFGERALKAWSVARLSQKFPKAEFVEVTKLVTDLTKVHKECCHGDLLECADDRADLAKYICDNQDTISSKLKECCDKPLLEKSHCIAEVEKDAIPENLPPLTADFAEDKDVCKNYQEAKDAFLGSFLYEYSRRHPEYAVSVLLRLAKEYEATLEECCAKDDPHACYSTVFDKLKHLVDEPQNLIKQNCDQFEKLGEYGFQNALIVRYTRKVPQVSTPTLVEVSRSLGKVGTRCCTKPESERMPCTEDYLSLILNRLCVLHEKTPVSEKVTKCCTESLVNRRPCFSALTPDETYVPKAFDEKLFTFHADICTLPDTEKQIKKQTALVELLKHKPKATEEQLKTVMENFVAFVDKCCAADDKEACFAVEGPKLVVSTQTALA

For `O=S(=O)(O)c1cc2c(O)c(c1)Cc1cc(S(=O)(=O)O)cc(c1O)Cc1cc(S(=O)(=O)O)cc(c1O)Cc1cc(S(=O)(=O)O)cc(c1O)C2`, the dissociation constant Kd (commonly the free concentration of one partner at which half of the binding sites on the other are occupied at equilibrium, for simple one-to-one binding) was 27 µM in series [1] and 15.6 µM in series [2].

Regarding `O=S(=O)(O)c1cc2c(O)c(c1)Cc1cc(S(=O)(=O)O)cc(c1O)Cc1cc(S(=O)(=O)O)cc(c1O)Cc1cc(S(=O)(=O)O)cc(c1O)Cc1cc(S(=O)(=O)O)cc(c1O)Cc1cc(S(=O)(=O)O)cc(c1O)Cc1cc(S(=O)(=O)O)cc(c1O)Cc1cc(S(=O)(=O)O)cc(c1O)C2`, the midpoint of inhibition in series [3], the IC50, lay at 6.4 µM.

Turning to `CCCCCCOc1c2cc(P(=O)(O)O)cc1Cc1cc(P(=O)(O)O)cc(c1OCCCCCC)Cc1cc(P(=O)(O)O)cc(c1OCCCCCC)Cc1cc(P(=O)(O)O)cc(c1OCCCCCC)C2`, the 50% inhibitory concentration (IC50) – broadly, the point on the concentration scale where inhibition reaches its midpoint – in series [4] was 8.79 µM; in series [5] it was 3.88 µM.

On to `CC[C@@]1(O)C(=O)OCc2c1cc1n(c2=O)Cc2cc3ccccc3nc2-1` [CAMPTOTHECIN], for which the inhibition (in general, the share of the control response that was lost under treatment) at 1 µM in series [6] stood at 98%.

For the molecule `COc1cccc2c1C(=O)c1c(O)c3c(c(O)c1C2=O)C[C@@](O)(C(=O)CO)C[C@@H]3O[C@H]1C[C@H](N)[C@H](O)[C@H](C)O1` [DOXORUBICIN], the inhibition at 1 µM in series [6] is 87%.

On to `CO[C@@]12[C@H](COC(N)=O)C3=C(C(=O)C(C)=C(N)C3=O)N1C[C@@H]1N[C@@H]12` [MITOMYCIN], for which, in series [6], the inhibition at 1 µM was determined as 94%.
